Results: ChEMBL document CHEMBL5512689, “Discovery of Clinical Candidate PF-06648671: A Potent γ-Secretase Modulator for the Treatment of Alzheimer's Disease” (J Med Chem, 2024)
In brackets after ≈: the same amount, converted by molar mass.

What was measured:
[1] = Drug penetration in rat assessed as Unbound brain-to-plasma concentration ratio; type: ADME, cell-free; details: read-out: K(p,uu,brain)
[2] = Oral bioavailability in dog at 5 mg/kg; type: ADME, organism-based, Canis lupus familiaris; details: in vivo
[3] = Apparent permeability across apical to basolateral side in dog RRCK cells; type: ADME, cell-based, Canis lupus familiaris, MDCKII-LE; details: MDCK
[4] = Volume of distribution at steady state in rat at 1 mg/kg, iv; type: ADME, organism-based; details: in vivo, read-out: Vdss
[5] = Kinetic solubility of compound at pH 6.5; type: physicochemical; details: buffer, read-out: Kinetic_solubility
[6] = Drug penetration in human assessed as Unbound brain-to-plasma concentration ratio; type: ADME, cell-free; details: read-out: K(p,uu,brain)
[7] = Ratio of drug concentration in brain to plasma in rat at 10 mg/kg, po; type: ADME, organism-based; details: read-out: BPR
[8] = Volume of distribution at steady state in human at 1 mg/kg, iv; type: ADME, organism-based; details: in vivo, read-out: Vdss
[9] = Lipophilicity, log D of the compound; type: physicochemical; details: octanol/water
[10] = Oral bioavailability in rat at 5 mg/kg; type: ADME, organism-based; details: in vivo
[11] = Oral bioavailability in human at 5 mg/kg; type: ADME, organism-based; details: in vivo
[12] = Volume of distribution at steady state in dog at 1 mg/kg, iv; type: ADME, organism-based, Canis lupus familiaris; details: in vivo, read-out: Vdss
[13] = Lipophilicity, log D of the compound by shake flask method; type: physicochemical; details: octanol/water
[14] = Drug penetration in Non human primate assessed as unbound brain-to-plasma concentration ratio; type: ADME, cell-free; details: primates, read-out: K(p,uu,brain)

Structure (SMILES): Cc1cn(-c2ccc3n(c2=O)CCN([C@@H](C)[C@@H]2CC[C@H](c4cc(F)c(C(F)(F)F)c(F)c4)O2)C3=O)cn1
- Kp uu [1]: 0.08

Structure (SMILES): Cc1cn(-c2ccc3n(c2=O)CCN([C@@H](C)[C@@H]2CC[C@H](c4ccc(C(F)(F)F)c(F)c4F)O2)C3=O)cn1
- Kp uu [1]: 0.5

Structure (SMILES): Cc1cn(-c2ccc3n(c2=O)CCN([C@@H](C)[C@@H]2CC[C@H](c4cc(F)c(Cl)cc4C(F)(F)F)O2)C3=O)cn1
- bioavailability [2]: 88%
- Papp A→B [3]: 5.8 ×10⁻⁶ cm/s
- Vd [4]: 0.8 L/kg
- solubility kinetic [5]: 44.8 µM (≈ 24.1 µg/mL)
- Kp uu [6]: 1
- Kp [7]: 1.5
- Kp uu [1]: 0.7
- Vd [8]: 1.3 L/kg
- logD [9]: 5
- bioavailability [10]: 67%
- bioavailability [11]: 60%
- Vd [12]: 0.7 L/kg
- logD [13]: 4.2

Structure (SMILES): Cc1cn(-c2ccc3n(c2=O)CCN([C@@H](C)[C@@H]2CC[C@H](c4ccc(C(F)(F)F)cc4)O2)C3=O)cn1
- Kp uu [1]: 0.5

Structure (SMILES): Cc1cn(-c2ccc3n(c2=O)CCN([C@@H](C)[C@@H]2CC[C@H](c4ccc(Cl)cc4C(F)(F)F)O2)C3=O)cn1
- Kp uu [14]: 1
- Kp uu [1]: 0.5
